Measurements published in EP0745595A1, “3-(3-Aryloxyphenyl)-1-(substituted methyl)-s-triazine-2,4,6-oxo or thiotrione herbicidal agents” (American Cyanamid Company, priority 1995, dated 1996).

Experiments:
Type in all cases: in vivo
IPOMOEA SPP. = experiment: Postemergence herbicidal evaluation, IPOSS (Morningglory spp.)
How it was run: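 In this greenhouse postemergence herbicide test on Ipomoea spp. (morningglory), compounds in 50/50 acetone/water with 0.5% TWEEN®20 were sprayed at 40 psi onto seedlings about two weeks old grown in jiffy flats. After four to five weeks, injury was scored on a 0-9 scale covering stand, vigor, malformation, size, chlorosis and overall appearance versus control, with repeat tests averaged.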

CHENOPODIUM ALBUM, L. [1] = experiment: Postemergence herbicidal evaluation, CHEAL (Lambsquarters, Common)
How it was run: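 Postemergence herbicidal activity on Chenopodium album was tested by spraying two-week-old seedlings grown in jiffy flats with compound in acetone/water (50/50) plus 0.5% TWEEN®20, using a 40 psi nozzle. Four to five weeks after treatment, stand, vigor, malformation, size, chlorosis and overall appearance were scored 0-9 relative to controls, with repeat tests averaged.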

ZEA MAYS L. = experiment: Postemergence herbicidal evaluation, ZEAMX (Corn, Field)
How it was run: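 This greenhouse postemergence test treated corn plants about two weeks old. Compounds in a 50/50 acetone/water mixture with 0.5% TWEEN®20 were applied through a spray nozzle at 40 psi. After four to five weeks, injury was scored 0-9 against an untreated control, judging stand, vigor, malformation, size, chlorosis and overall appearance. Repeated tests were averaged.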

[2] = system: ORYZA SATIVA, L. TEBONNET; experiment: Rice tolerance to post-transplant applications under flooded paddy conditions, ORYSAT (Rice, Tebonnet); conditions: for Herbicidal effect rating, ORYSAT: post-transplant rice, 3-4 weeks after treatment; for ORYSAT: post-transplanted rice
How it was run: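 Greenhouse pots of silt loam, each with two transplanted ten-day-old seedlings, are held under 1.5 to 3 cm of standing water. Three days later the compound is applied to the flooded surface at about 0.5, 0.25, 0.125 or 0.063 kg/ha. Damage is scored visually 0-9 after 3-4 weeks.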

CHENOPODIUM ALBUM, L. [3] = experiment: Preemergence herbicidal evaluation, CHEAL (Lambsquarters, Common); conditions: for CHEAL herbicidal rating: rated four to five weeks after treatment
How it was run: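 Seeds mixed with potting soil were planted on about one inch of soil in cups, then sprayed with aqueous acetone solution of test compound at about 0.125 to 0.50 kg per hectare. Plants grown under greenhouse conditions; visual rating on a 0-9 scale versus untreated control at 4-5 weeks.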

GALIUM APARINE = experiment: Postemergence herbicidal evaluation, GALAP (Galium); set-up: key to GALAP rating / Herbicidal effect rating, GALAP / GALAP: 0-9 visual rating scale vs untreated control
How it was run: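 In this postemergence greenhouse test, two-week-old Galium aparine seedlings grown in jiffy flats received a 40 psi spray of compound in acetone/water (50/50) with 0.5% TWEEN®20 surfactant. After four to five weeks, stand, vigor, malformation, size, chlorosis and overall appearance were compared with untreated controls on a 0-9 scale, averaging multiple tests.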

[4] = system: AMBROSIA ARTEMISIIFOLIA, L.; experiment: Postemergence herbicidal evaluation, AMBEL (Ragweed, Common)
How it was run: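 Postemergence herbicidal activity on AMBEL (common ragweed) was assessed on two-week-old seedlings grown in jiffy flats. Treatment solutions of 50/50 acetone/water with 0.5% TWEEN®20 surfactant were sprayed at 40 psi. After four to five weeks in the greenhouse, plants were scored 0-9 against a control for stand, vigor, malformation, size, chlorosis and overall appearance, with multiple tests averaged.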

[5] = system: ABUTILON THEOPHRASTI, MEDIC.; experiment: Postemergence herbicidal evaluation, ABUTH (Velvetleaf)
How it was run: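 This postemergence herbicide test used two-week-old velvetleaf seedlings grown in jiffy flats. Each compound was sprayed at 40 psi as a dispersion in 50/50 acetone/water with 0.5% TWEEN®20 surfactant. Plants then received routine greenhouse care. After four to five weeks, injury was scored visually on a 0-9 scale against a control, and replicate tests were averaged.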

CASSIA OBTUSIFOLIA, L. = experiment: Postemergence herbicidal evaluation, CASOB (Sicklepod); set-up: key to CASOB rating / Herbicidal effect rating, CASOB / CASOB: 0-9 visual rating scale vs untreated control
How it was run: (§1)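 Ratings (0-9) reflect visual stand, vigor, malformation, size and chlorosis compared with untreated plants, assessed 4-5 weeks after postemergence spraying. Treatment was applied to roughly two-week-old seedlings at about 0.125-0.500 kg/ha in acetone/water with 0.5% Tween 20; replicate tests were averaged.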

[6] = system: TRITICUM AESTIVUM, CV. APOLLO; experiment: Postemergence herbicidal evaluation, TRZAWO (Wheat, Winter, CV. APOLLO)
How it was run: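 This greenhouse postemergence test applied compounds to roughly two-week-old wheat seedlings grown in jiffy flats. The spray solution was 50/50 acetone/water with 0.5% TWEEN®20, a polyoxyethylene sorbitan monolaurate, sprayed from a nozzle run at 40 psi. After four to five weeks of standard greenhouse care, injury was scored from 0 to 9 by comparing stand, vigor, malformation, size, chlorosis and overall appearance with a control. Multiple tests were averaged.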

[7] = system: ECHINOCHLOA CRUS-GALLI, (L) BEAU; experiment: Postemergence herbicidal evaluation, ECHCG (Barnyardgrass); set-up: key to ECHCG rating / Herbicidal effect rating, ECHCG / ECHCG: 0-9 visual rating scale vs untreated control
How it was run: as §1

SMILES: COC(=O)Cn1c(=O)n(C)c(=O)n(-c2cc(Oc3ccc(C(F)(F)F)cc3Cl)ccc2Cl)c1=O [Compound 39, Methyl 3-{[2-chloro-5-(2-chloro-α,α,α-trifluoro-p-tolyl)oxy]phenyl}tetrahydro-5-methyl-2,4,6-trioxo-s-triazine-1(2H)-acetate]
- IPOSS (IPOMOEA SPP.; Rate 0.016 kg/ha): 5.5
- IPOSS (IPOMOEA SPP.; Rate 0.032 kg/ha): 7.0
- IPOSS (IPOMOEA SPP.; Rate 0.063 kg/ha): 9.0
- IPOSS (IPOMOEA SPP.; Rate 0.125 kg/ha): 9.0
- IPOSS rating (IPOMOEA SPP.; Rate 0.125 kg/ha): 9.0
- IPOSS (IPOMOEA SPP.; Rate 0.250 kg/ha): 9.0
- IPOSS rating (IPOMOEA SPP.; Rate 0.250 kg/ha): 9.0
- IPOSS (IPOMOEA SPP.; Rate 0.500 kg/ha): 9.0
- IPOSS rating (IPOMOEA SPP.; Rate 0.500 kg/ha): 9.0
- CHEAL (CHENOPODIUM ALBUM, L. [1]; Rate 0.016 kg/ha): 6.0
- CHEAL (CHENOPODIUM ALBUM, L. [1]; Rate 0.032 kg/ha): 8.0
- CHEAL (CHENOPODIUM ALBUM, L. [1]; Rate 0.063 kg/ha): 9.0
- CHEAL (CHENOPODIUM ALBUM, L. [1]; Rate 0.125 kg/ha): 9.0
- CHEAL rating (CHENOPODIUM ALBUM, L. [1]; Rate 0.125 kg/ha): 9.0
- CHEAL (CHENOPODIUM ALBUM, L. [1]; Rate 0.250 kg/ha): 9.0
- CHEAL rating (CHENOPODIUM ALBUM, L. [1]; Rate 0.250 kg/ha): 9.0
- CHEAL (CHENOPODIUM ALBUM, L. [1]; Rate 0.500 kg/ha): 9.0
- CHEAL rating (CHENOPODIUM ALBUM, L. [1]; Rate 0.500 kg/ha): 9.0
- ZEAMX (ZEA MAYS L.; Rate 0.016 kg/ha): 3.3
- ZEAMX (ZEA MAYS L.; Rate 0.032 kg/ha): 4.3
- ZEAMX (ZEA MAYS L.; Rate 0.063 kg/ha): 4.8
- ZEAMX (ZEA MAYS L.; Rate 0.125 kg/ha): 6.5
- ZEAMX (ZEA MAYS L.; Rate 0.250 kg/ha): 8.0
- ZEAMX (ZEA MAYS L.; Rate 0.500 kg/ha): 8.5
- Herbicidal effect rating, ORYSAT ([2]; 0.063 kg/ha): 2.5
- Herbicidal effect rating, ORYSAT ([2]; 0.125 kg/ha): 3.5
- Herbicidal effect rating, ORYSAT ([2]; 0.250 kg/ha): 5.0
- Herbicidal effect rating, ORYSAT ([2]; 0.500 kg/ha): 5.3
- ORYSAT ([2]; Rate 0.031 kg/ha): 1.8
- ORYSAT ([2]; Rate 0.063 kg/ha): 2.5
- ORYSAT ([2]; Rate 0.125 kg/ha): 3.5
- ORYSAT ([2]; Rate 0.250 kg/ha): 5.0
- CHEAL (CHENOPODIUM ALBUM, L. [3]; Rate 0.063 kg/ha): 9.0
- CHEAL (CHENOPODIUM ALBUM, L. [3]; Rate 0.125 kg/ha): 9.0
- CHEAL herbicidal rating (CHENOPODIUM ALBUM, L. [3]; Rate 0.125 kg/ha): 9.0
- CHEAL (CHENOPODIUM ALBUM, L. [3]; Rate 0.250 kg/ha): 9.0
- CHEAL herbicidal rating (CHENOPODIUM ALBUM, L. [3]; Rate 0.250 kg/ha): 9.0
- CHEAL (CHENOPODIUM ALBUM, L. [3]; Rate 0.500 kg/ha): 9.0
- CHEAL herbicidal rating (CHENOPODIUM ALBUM, L. [3]; Rate 0.500 kg/ha): 9.0
- GALAP (GALIUM APARINE; Rate 0.016 kg/ha): 7.5
- GALAP (GALIUM APARINE; Rate 0.032 kg/ha): 8.5
- GALAP (GALIUM APARINE; Rate 0.063 kg/ha): 7.0
- GALAP (GALIUM APARINE; Rate 0.125 kg/ha): 8.0
- GALAP (GALIUM APARINE; Rate 0.250 kg/ha): 9.0
- GALAP (GALIUM APARINE; Rate 0.500 kg/ha): 9.0
- AMBEL ([4]; Rate 0.016 kg/ha): 4.5
- AMBEL ([4]; Rate 0.032 kg/ha): 6.5
- AMBEL ([4]; Rate 0.063 kg/ha): 7.5
- AMBEL ([4]; Rate 0.125 kg/ha): 8.5
- AMBEL ([4]; Rate 0.250 kg/ha): 9.0
- AMBEL ([4]; Rate 0.500 kg/ha): 9.0
- ABUTH ([5]; Rate 0.016 kg/ha): 7.0
- ABUTH ([5]; Rate 0.032 kg/ha): 8.5
- ABUTH ([5]; Rate 0.063 kg/ha): 9.0
- ABUTH ([5]; Rate 0.125 kg/ha): 9.0
- ABUTH rating ([5]; Rate 0.125 kg/ha): 9.0
- ABUTH ([5]; Rate 0.250 kg/ha): 9.0
- ABUTH rating ([5]; Rate 0.250 kg/ha): 9.0
- ABUTH ([5]; Rate 0.500 kg/ha): 9.0
- ABUTH rating ([5]; Rate 0.500 kg/ha): 9.0
- CASOB (CASSIA OBTUSIFOLIA, L.; Rate 0.016 kg/ha): 6.0
- CASOB (CASSIA OBTUSIFOLIA, L.; Rate 0.032 kg/ha): 9.0
- CASOB (CASSIA OBTUSIFOLIA, L.; Rate 0.063 kg/ha): 9.0
- CASOB (CASSIA OBTUSIFOLIA, L.; Rate 0.125 kg/ha): 9.0
- CASOB rating (CASSIA OBTUSIFOLIA, L.; Rate 0.125 kg/ha): 9.0
- CASOB (CASSIA OBTUSIFOLIA, L.; Rate 0.250 kg/ha): 9.0
- CASOB rating (CASSIA OBTUSIFOLIA, L.; Rate 0.250 kg/ha): 9.0
- CASOB (CASSIA OBTUSIFOLIA, L.; Rate 0.500 kg/ha): 9.0
- CASOB rating (CASSIA OBTUSIFOLIA, L.; Rate 0.500 kg/ha): 9.0
- TRZAWO ([6]; Rate 0.016 kg/ha): 2.8
- TRZAWO ([6]; Rate 0.032 kg/ha): 3.8
- TRZAWO ([6]; Rate 0.063 kg/ha): 4.5
- TRZAWO ([6]; Rate 0.125 kg/ha): 4.8
- TRZAWO ([6]; Rate 0.250 kg/ha): 6.0
- TRZAWO ([6]; Rate 0.500 kg/ha): 5.5
- ECHCG ([7]; Rate 0.016 kg/ha): 1.5
- ECHCG ([7]; Rate 0.032 kg/ha): 3.0
- ECHCG ([7]; Rate 0.063 kg/ha): 1.0
- ECHCG ([7]; Rate 0.125 kg/ha): 4.5
- ECHCG ([7]; Rate 0.250 kg/ha): 7.5
- ECHCG ([7]; Rate 0.500 kg/ha): 8.0

SMILES: COC(=O)Cn1c(=O)n(C)c(=O)n(-c2cc(Oc3ccccn3)ccc2[N+](=O)[O-])c1=O [Compound 38, Methyl tetrahydro-3-methyl-5-[2-nitro-5-(2-pyridyloxy)phenyl]-2,4,6-trioxo-s-triazine-1(2H)-acetate]
- IPOSS rating (IPOMOEA SPP.; Rate 0.500 kg/ha): 0.0
- CHEAL rating (CHENOPODIUM ALBUM, L. [1]; Rate 0.500 kg/ha): 0.0
- ZEAMX rating (ZEA MAYS L.; Rate 0.500 kg/ha): 0.0
- Herbicidal effect rating, ORYSAT ([2]; 0.500 kg/ha): 0.0
- CHEAL herbicidal rating (CHENOPODIUM ALBUM, L. [3]; Rate 0.500 kg/ha): 0.0
- GALAP rating (GALIUM APARINE; Rate 0.500 kg/ha): 0.0
- AMBEL rating ([4]; Rate 0.500 kg/ha): 0.0
- ABUTH rating ([5]; Rate 0.500 kg/ha): 0.0
- CASOB rating (CASSIA OBTUSIFOLIA, L.; Rate 0.500 kg/ha): 0.0
- TRZAWO rating ([6]; Rate 0.500 kg/ha): 0.0
- ECHCG rating ([7]; Rate 0.500 kg/ha): 0.0
